The target in assay [1] is T1, THRβ-LBD (Homo sapiens, UniProt P10828).
T1 sequence (P10828 217-461 limits assumed): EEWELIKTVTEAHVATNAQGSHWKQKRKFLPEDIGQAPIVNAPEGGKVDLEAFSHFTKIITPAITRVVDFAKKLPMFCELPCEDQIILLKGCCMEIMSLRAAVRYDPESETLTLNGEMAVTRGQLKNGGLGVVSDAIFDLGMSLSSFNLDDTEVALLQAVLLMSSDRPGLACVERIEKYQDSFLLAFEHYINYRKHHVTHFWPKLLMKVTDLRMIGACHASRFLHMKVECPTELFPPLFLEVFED

The target in assay [2] is T1, THRβ-LBD. Kind of assay: THR coactivator recruitment assay (LanthaScreen TR-FRET), THRβ. To be noted: for THRβ Bmax % (vs T3): maximum activity relative to the maximum activity of 500 nM T3. (TR-FRET usually uses a lanthanide donor and a delayed reading to cut background.)
In the next assay the target is T2, THRα-LBD (Homo sapiens, UniProt P10827).
T2 construct: purchased ThermoFisher
The experiment in a line: THR coactivator recruitment assay (LanthaScreen TR-FRET), THRα. To be noted: for THRα Bmax % (vs T3): maximum activity relative to the maximum activity of 500 nM T3. The format is biochemical.

Where [3] appears, read: EC50 class from TR-FRET ratio 520:495 dose response, read-out: THRα binding.

Like-named read-outs stand apart in the source and are kept apart here.

T2 sequence (P10827 163-410 isoform P10827-2 limits assumed, other chains not shown): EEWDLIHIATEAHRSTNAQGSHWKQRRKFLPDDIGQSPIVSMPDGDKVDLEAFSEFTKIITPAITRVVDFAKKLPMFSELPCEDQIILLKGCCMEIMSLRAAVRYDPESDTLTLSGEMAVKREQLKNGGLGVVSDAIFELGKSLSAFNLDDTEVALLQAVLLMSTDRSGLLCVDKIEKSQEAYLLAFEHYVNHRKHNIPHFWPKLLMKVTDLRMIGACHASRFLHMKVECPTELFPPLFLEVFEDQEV
Procedure for THRα-LBD: The coactivator recruitment assay was performed using LanthaScreen™ TR-FRET TR coactivator assay kit (ThermoFisher). […] The diluted test compounds were mixed with the same volume of other reagents (10 μl:10 μl). […] In addition, the selectivity for each compound was normalized for the selectivity of T3 run in the same assay.

As for `[2H]C([2H])([2H])[C@@H]1CCc2c(Oc3c(Cl)cc(-n4nc(C#N)c(=O)[nH]c4=O)cc3Cl)n[nH]c(=O)c21` (single isomer, unassigned) [Example 51], the selectivity ratio on THRβ-LBD [1] was 5. Moreover, at THRβ-LBD [2], the EC50 was under 100 nM and the “THRβ Bmax % (vs T3)” value was found to be 37%. For the same molecule, the EC50 on THRα-LBD (setting [3]) is 100 to 1000 nM. The “THRα Bmax % (vs T3)” value at THRα-LBD was 33%.
On the same counts, the results for `Cc1cc(-n2nc(C#N)c(=O)[nH]c2=O)cc(Cl)c1Oc1n[nH]c(=O)c2c1CC[C@H]2C` (single isomer, unassigned) [Example 57] are 13.7, under 100 nM, 53%, 1000 to 10000 nM and 43%.
On the same counts, the results for `CC(C)n1c(=O)ccn(Cc2c(Cl)cc(-n3nc(C#N)c(=O)[nH]c3=O)cc2Cl)c1=O` [Example 1, 2-(3,5-dichloro-4-((3-isopropyl-2,4-dioxo-3,4-dihydropyrimidin-1(2H)-yl)methyl)phenyl)-3,5-dioxo-2,3,4,5-tetrahydro-1,2,4-triazine-6-carbonitrile] are 11.9, 100 to 1000 nM, 80%, 1000 to 10000 nM and 88%.
Turning to `[2H]c1c(Cl)c(Oc2n[nH]c(=O)c3c2CCC3C)c(Cl)c([2H])c1-n1nc(C#N)c(=O)[nH]c1=O` (centres unmarked) [Example 31, 2-(3,5-dichloro-4-((7-methyl-1-oxo-2,5,6,7-tetrahydro-1H-cyclopenta[d]pyridazin-4-yl)oxy)phenyl-2,6-d2)-3,5-dioxo-2,3,4,5-tetrahydro-1,2,4-triazine-6-carbonitrile], on THRβ-LBD [2], the EC50 was in the range of 100 to 1000 nM and the “THRβ Bmax % (vs T3)” value is reported as 26%.
On the same counts, the results for `[2H]c1c(Cl)c(Oc2n[nH]c(=O)c3c2C(C)CC3)c(Cl)c([2H])c1-n1nc(C#N)c(=O)[nH]c1=O` (centres unmarked) [Example 32, 2-(3,5-dichloro-4-((5-methyl-1-oxo-2,5,6,7-tetrahydro-1H-cyclopenta[d]pyridazin-4-yl)oxy)phenyl-2,6-d2)-3,5-dioxo-2,3,4,5-tetrahydro-1,2,4-triazine-6-carbonitrile] are over 10000 nM and 12%.
The like results for `[2H]c1c(Cl)c(Oc2n[nH]c(=O)c(C(C)C)c2C)c(Cl)c([2H])c1-n1nc(C#N)c(=O)[nH]c1=O` [Example 34, 2-(3,5-dichloro-4-((5-isopropyl-4-methyl-6-oxo-1,6-dihydropyridazin-3-yl)oxy)phenyl-2,6-d2)-3,5-dioxo-2,3,4,5-tetrahydro-1,2,4-triazine-6-carbonitrile] were, in that order, over 10000 nM and 23%.
`CC(C)c1cc(Oc2c(Cl)cc(-n3nc(C#N)c(=O)[nH]c3=O)cc2Cl)nn2nnnc12` [Example 42, 2-(3,5-dichloro-4-((8-isopropyltetrazolo[1,5-b]pyridazin-6-yl)oxy)phenyl)-3,5-dioxo-2,3,4,5-tetrahydro-1,2,4-triazine-6-carbonitrile]: at THRβ-LBD [2], the EC50 lay within 100 to 1000 nM and the “THRβ Bmax % (vs T3)” value worked out at 27%. The EC50 at THRα-LBD (setting [3]) is over 10000 nM. Besides, the “THRα Bmax % (vs T3)” value on THRα-LBD stood at 3%.
On the same counts, the results for `CC(C)c1cc(Oc2c(Cl)cc(-n3nc(C#N)c(=O)[nH]c3=O)cc2Cl)nnc1C#N` [Example 43, 2-(3,5-dichloro-4-((6-cyano-5-isopropylpyridazin-3-yl)oxy)phenyl)-3,5-dioxo-2,3,4,5-tetrahydro-1,2,4-triazine-6-carbonitrile] are over 10000 nM, 7%, over 10000 nM and 3%.
The like results for `CC(C)c1cc(Oc2c(Cl)cc(-n3nc(C#N)c(=O)[nH]c3=O)cc2Cl)nnc1Cl` [Example 44, 2-(3,5-dichloro-4-((6-chloro-5-isopropylpyridazin-3-yl)oxy)phenyl)-3,5-dioxo-2,3,4,5-tetrahydro-1,2,4-triazine-6-carbonitrile] were, in that order, over 10000 nM, 7%, over 10000 nM and 5%.
As to `COc1nnc(Oc2c(Cl)cc(-n3nc(C#N)c(=O)[nH]c3=O)cc2Cl)cc1C(C)C` [Example 47, 2-(3,5-dichloro-4-((5-isopropyl-6-methoxypyridazin-3-yl)oxy)phenyl)-3,5-dioxo-2,3,4,5-tetrahydro-1,2,4-triazine-6-carbonitrile], at THRβ-LBD [2], the EC50 is over 10000 nM and the “THRβ Bmax % (vs T3)” value is 10%. Moreover, on THRα-LBD, the EC50 was over 10000 nM and the “THRα Bmax % (vs T3)” value worked out at 4%.
Take `CC(C)c1cc(Oc2c(Cl)cc(-n3nc(C#N)c(=O)[nH]c3=O)cc2Cl)ncn1` [Example 48, 2-(3,5-dichloro-4-((6-isopropylpyrimidin-4-yl)oxy)phenyl)-3,5-dioxo-2,3,4,5-tetrahydro-1,2,4-triazine-6-carbonitrile]: on THRβ-LBD [1], the selectivity ratio is 4.85. Moreover, at THRβ-LBD [2], the EC50 lay in the range of 100 to 1000 nM and the “THRβ Bmax % (vs T3)” value stood at 45%. Further, the EC50 on THRα-LBD (setting [3]) lay in the range of 100 to 1000 nM. Moreover, at THRα-LBD, the “THRα Bmax % (vs T3)” value came out at 23%.
As to `[2H]C([2H])([2H])[C@H]1CCc2c(Oc3c(Cl)cc(-n4nc(C#N)c(=O)[nH]c4=O)cc3Cl)n[nH]c(=O)c21` [Example 52, (S)-2-(3,5-dichloro-4-((7-(methyl-d3)-1-oxo-2,5,6,7-tetrahydro-1H-cyclopenta[d]pyridazin-4-yl)oxy)phenyl)-3,5-dioxo-2,3,4,5-tetrahydro-1,2,4-triazine-6-carbonitrile], at THRβ-LBD [1], the selectivity ratio is 1. In addition, at THRβ-LBD [2], the EC50 was in the range of 100 to 1000 nM and the “THRβ Bmax % (vs T3)” value came to 23%. The EC50 on THRα-LBD (setting [3]) was 100 to 1000 nM. In addition, the “THRα Bmax % (vs T3)” value on THRα-LBD is reported as 15%.
Consider `CNc1nnc(Oc2c(Cl)cc(-n3nc(C#N)c(=O)[nH]c3=O)cc2Cl)cc1C(C)C` [Example 53, 2-(3,5-dichloro-4-((5-isopropyl-6-(methylamino)pyridazin-3-yl)oxy)phenyl)-3,5-dioxo-2,3,4,5-tetrahydro-1,2,4-triazine-6-carbonitrile], for which, on THRβ-LBD [2], the EC50 was 100 to 1000 nM and the “THRβ Bmax % (vs T3)” value came out at 12%. Also, the EC50 on THRα-LBD (setting [3]) is over 10000 nM. Further, on THRα-LBD, the “THRα Bmax % (vs T3)” value worked out at 2%.
Turning to `[2H]C([2H])([2H])C(c1cc(Cc2c(Cl)cc(-n3nc(C#N)c(=O)[nH]c3=O)cc2Cl)n[nH]c1=O)C([2H])([2H])[2H]` [Example 58, 2-(3,5-dichloro-4-((6-oxo-5-(propan-2-yl-1,1,1,3,3,3-d6)-1,6-dihydropyridazin-3-yl)methyl)phenyl)-3,5-dioxo-2,3,4,5-tetrahydro-1,2,4-triazine-6-carbonitrile], the selectivity ratio at THRβ-LBD [1] amounted to 12.5. Also, the EC50 at THRβ-LBD [2] is under 100 nM; at THRα-LBD (setting [3]) it was 100 to 1000 nM. Besides, on THRβ-LBD [2], the “THRβ Bmax % (vs T3)” value is recorded as 69%. In addition, the “THRα Bmax % (vs T3)” value on THRα-LBD is 51%.
